# Results taken from patent US20250250265A1, “BENZOTHIAZOLE-PHENYLSULFONYL-PIPERIDINE ANALOGS AS ACTIVATORS OF NACYLPHOSPHATIDYLETHANOLAMINE HYDROLYZING PHOSPHOLIPASE D” (priority 2022, published 2025).
# Entries after “also recorded” stand apart in the source; their conditions may differ.
# Assays:
# [1] = biological target: T1, NAPE-PLD activity in primary BMDMϕ (Mus musculus, UniProt Q8BH82); test: NAPE-PLD activity in primary bone marrow derived macrophages; type: cell-based; conditions: VU534 at 10 μM (FIG. 5)
# T1 construct: endogenous in cells; host or cells: primary bone-marrow-derived macrophages (C57BL6/j mice)
# T1 sequence (Q8BH82 1-396): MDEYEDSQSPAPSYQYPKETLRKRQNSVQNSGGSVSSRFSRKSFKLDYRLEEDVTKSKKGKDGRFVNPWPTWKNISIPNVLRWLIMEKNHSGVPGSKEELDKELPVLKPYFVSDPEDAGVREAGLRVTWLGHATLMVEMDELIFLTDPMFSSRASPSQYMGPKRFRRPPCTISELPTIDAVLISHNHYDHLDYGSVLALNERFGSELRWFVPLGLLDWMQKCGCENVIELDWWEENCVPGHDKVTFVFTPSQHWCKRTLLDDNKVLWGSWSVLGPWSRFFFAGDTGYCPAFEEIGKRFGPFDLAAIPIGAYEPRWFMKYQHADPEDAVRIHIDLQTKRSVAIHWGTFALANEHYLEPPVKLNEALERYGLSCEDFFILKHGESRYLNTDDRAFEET
# [2] = biological target: T2, recombinant mouse NAPE-PLD (Mus musculus, UniProt Q8BH82); test: LC/MS NAPE-PLD assay with N-oleoyl-phosphatidylethanolamine (NOPE) as substrate; type: biochemical; conditions: NOPE 90 min (FIG. 19A)
# T2 construct: hexahistidine (His6) (C); made in house; host or cells: E. coli
# T2 sequence (Q8BH82 1-396): T1 sequence (Q8BH82 1-396)
# Procedure: For LC/MS assays, N-oleoyl-PE was added as substrate after […] pre-incubation with compound VU534, VU533, VU233 or vehicle. 90 min after N-oleoyl-PE was added, the reaction was quenched by adding 3 volumes of ice-cold methanol containing [^2H4]OEA and [^2H4]N-palmitoyl-PE and then 6 volumes of ice-cold chloroform.33 The lower phase was dried under nitrogen gas and dissolved in 100 μL mobile phase A. High performance liquid chromatography was performed using a 2.1 mm C18 guard column (Phenomenex AJ0-8782), and a rapid gradient ramp. Mobile phase A was 5:1:4 (v/v/v) isopropanol: methanol: water, with 0.2% v/v formic acid, 0.66 mM ammonium formate and 3 μM phosphoric acid included as additives. Mobile phase B was 0.2% (v/v) formic acid in isopropanol. Initial column conditions were 5% mobile phase B, followed by gradient ramp to 95% B over 0.5 min, held at 95% B for 2 min, the returned to initial conditions (5% B) over 1 min. Flow rate throughout was 100 μL/min. Injection volume was 2 μL. The sample injector needle was washed before each injection using a strong wash of methanol, and a weak wash of 1:1:1:1 (v/v/v/V) isopropanol: methanol: acetonitrile: water, with 0.2% formic acid, 0.3 mM ammonium formate, and 0.37 mM phosphoric acid included as additives. Multiple reaction monitoring for the following ions were monitored: OEA [M+H]^+: m/z 326.3→m/z 62.1; [^2H4]OEA [M+H]^+: m/z 330.3→m/z 66.1; N-oleoyl-PE [M+NH4]^+: m/z 693.5→m/z 308.3 (quantifier), m/z 693.5→m/z 271.2 (qualifier); [^2H4]N-palmitoyl-PE [M+NH4]^+: m/z 1003.8→m/z 286.3 (quantifier), m/z 1003.8→m/z 603.5 (qualifier). […]
# To confirm the results of the fluorescence-based assays, an orthogonal biochemical Nape-pld assay based on LC/MS was employed. Recombinant mouse NAPE-PLD was pre-treated with VU534, VU533, VU233 or vehicle for 30 min, then N-oleoyl-phosphatidylethanolamine (NOPE) was added for 90 min, and the resulting levels of OEA and NOPE was measured by LC/MS. […]
# [3] = biological target: T2, recombinant mouse NAPE-PLD; test: Michaelis-Menten analysis with flame-NAPE as substrate; type: biochemical
# Procedure: To further understand this effect, a 50-nanosecond molecular dynamic (MD) simulation was performed using AMBER17. The PDQ9:VU534 complex was prepped for simulation using CHARMM-GUI and ff14SB, TIP3P, GAFF2 force fields were employed for proteins, […] molecules, respectively. This simulation predicted that VU534 binding to the interface pocket allosterically alters the catalytic site conformation including reorienting the zinc-hydroxide-zinc complex parallel to the substrate (FIG. 11), consistent with the measured increased kcat.
# (§1) A similar in vitro fluorescence Nape-pld activity assay was used for LEI-401 and VU233 competition assays except that this assay was performed using black-walled clear-bottom 96-well plates with 3.5 μM PED-A1 and no N-palmitoyl-dioleoyl-PE used as substrate and read in a BioTek Synergy H1 plate reader with the slope of the fluorescence signal from 0-4 min (linear phase) used as the assay readout. LEI-401, VU233, and VU534 were incubated for 1 h prior to addition of PED-A1. The Michaelis-Menten study used this same assay except with graded concentration of flame-NAPE.
# To confirm the results of the fluorescence-based assays, an orthogonal biochemical Nape-pld assay based on LC/MS was employed. Recombinant mouse NAPE-PLD was pre-treated with VU534, VU533, VU233 or vehicle for 30 min, then N-oleoyl-phosphatidylethanolamine (NOPE) was added for 90 min, and the resulting levels of OEA and NOPE was measured by LC/MS. […] To further characterize the effect of VU534 on NAPE-PLD activity, a Michaelis-Menten analysis was performed using recombinant mouse NAPE-PLD and graded concentrations of flame-NAPE, a selective NAPE-PLD fluorogenic substrate resistant to competing esterase activity.
# [4] = biological target: T2, recombinant mouse NAPE-PLD; test: In vitro competition assay (LEI-401, VU233, VU534) on recombinant mouse Nape-pld; type: biochemical
# Procedure: as §1
Structure (SMILES),effect on NAPE-PLD activity in primary BMDM [1],effect on OEA/NOPE ratio [2],"effect on catalytic rate (kcat) of NAPE-PLD ([3]; Example 9, FIG. 10)","K1/2 of NAPE-PLD ([3]; with VU534 (vehicle 12.4 μM), flame-NAPE)","maximal velocity of NAPE-PLD ([3]; with VU534 (vehicle 227 RFU/min), flame-NAPE)","increase of Nape-pld activity ([4]; 5 μM, in the absence of LEI-401)",effect on enzyme activation by 5 μM VU534 ([4]; graded concentrations with 5 μM VU534 (FIG. 19C))
"Cc1cc(C)c2sc(NC(=O)C3CCN(S(=O)(=O)c4ccc(F)cc4)CC3)nc2c1 [VU534, N-(5,7-Dimethylbenzo[d]thiazol-2-yl)-1-((4-fluorophenyl)sulfonyl)piperidine-4-carboxamide]",increases NAPE-PLD activity,significantly increased the OEA/NOPE ratio,"enhanced kcat (turnover number) without reducing the Michaelis-Menten constant, Km; also recorded: increases the catalytic rate",5.9 µM,421 RFU/min,1.5 fold,
O=C(Nc1nc2ccccc2s1)C1CCN(S(=O)(=O)c2ccc(F)c(Cl)c2)CC1 [VU233],,no significant effect,,,,,suppress the enzyme activation of 5 μM VU534 in a concentration-dependent manner
Cc1ccc(C)c2sc(NC(=O)C3CCN(S(=O)(=O)c4ccc(F)cc4)CC3)nc12 [VU533],,significantly increased the OEA/NOPE ratio,,,,,
